Data: paper PMC4982551 (MedChemComm, 2016)

Target: mPTPB (Mycobacterium tuberculosis, UniProt I6WXK4)
Assay: PTP activity assay with pNPP substrate, mPTPB
Assay type: biochemical
Conditions: ratio of IC50 values

Sequence of mPTPB (I6WXK4 whole entry, looked up): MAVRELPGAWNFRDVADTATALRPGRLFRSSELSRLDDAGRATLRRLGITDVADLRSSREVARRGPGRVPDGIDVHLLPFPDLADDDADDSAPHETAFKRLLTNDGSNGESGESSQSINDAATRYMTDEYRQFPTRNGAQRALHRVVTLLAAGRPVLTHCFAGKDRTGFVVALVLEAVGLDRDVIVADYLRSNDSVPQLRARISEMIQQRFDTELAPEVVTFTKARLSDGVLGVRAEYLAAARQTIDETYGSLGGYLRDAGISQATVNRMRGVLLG

## Cc1ccc(S(=O)(=O)NNC(=O)COc2ccc3cc(C(O)(C(F)(F)F)C(F)(F)F)c(O)cc3c2)cc1 [7r]
  selectivity for mPTPB compared to SHP2, PTP1B, CD45, LYP, and FAP-1: more than 7 fold
